Reference: article PMC8877721 (Journal of medicinal chemistry, 2021)

How the values were obtained:
HUH7 cells [1] = assay: Alamar Blue cell viability assay, HUH7 cells; assay type: cell-based, human; details: 2 days in culture
HUH7 cells [2] = assay: In cellulo metabolism of 1 and ddhC to ddhCTP in HUH7 cells; assay type: cell-based, human; details: 100 μM
WNV = assay: Antiviral plaque assay, WNV; assay type: cell-based, West Nile virus; details: MOI 0.1, 3 days post-infection
ZIKV (strain PRABC59) [3] = assay: Antiviral plaque assay, ZIKV; assay type: cell-based, Zika virus; details: for reduction in ZIKV virus levels: 0.1 mM dose, MOI 0.1, plaque titration 4 days post-infection
Vero cells = assay: Alamar Blue cell viability assay, Vero cells; assay type: cell-based; details: 2 days in culture
HEK293 cells = HEK293 cells exposed to ddhC, after 48 h; cited from earlier work
ZIKV (strain PRABC59) [4] = details: 1 mM ddhC over 24 h; cited from earlier work
[5] = molecular target: T1, DNA polymerase γ (catalytic domain) (Homo sapiens, UniProt P54098); assay: Enzymatic incorporation of ddhCTP by DNA polymerase gamma; assay type: biochemical; details: 100 μM nucleotide, 0, 10 or 20 min, gel electrophoresis
T1 sequence (P54098 1-1239): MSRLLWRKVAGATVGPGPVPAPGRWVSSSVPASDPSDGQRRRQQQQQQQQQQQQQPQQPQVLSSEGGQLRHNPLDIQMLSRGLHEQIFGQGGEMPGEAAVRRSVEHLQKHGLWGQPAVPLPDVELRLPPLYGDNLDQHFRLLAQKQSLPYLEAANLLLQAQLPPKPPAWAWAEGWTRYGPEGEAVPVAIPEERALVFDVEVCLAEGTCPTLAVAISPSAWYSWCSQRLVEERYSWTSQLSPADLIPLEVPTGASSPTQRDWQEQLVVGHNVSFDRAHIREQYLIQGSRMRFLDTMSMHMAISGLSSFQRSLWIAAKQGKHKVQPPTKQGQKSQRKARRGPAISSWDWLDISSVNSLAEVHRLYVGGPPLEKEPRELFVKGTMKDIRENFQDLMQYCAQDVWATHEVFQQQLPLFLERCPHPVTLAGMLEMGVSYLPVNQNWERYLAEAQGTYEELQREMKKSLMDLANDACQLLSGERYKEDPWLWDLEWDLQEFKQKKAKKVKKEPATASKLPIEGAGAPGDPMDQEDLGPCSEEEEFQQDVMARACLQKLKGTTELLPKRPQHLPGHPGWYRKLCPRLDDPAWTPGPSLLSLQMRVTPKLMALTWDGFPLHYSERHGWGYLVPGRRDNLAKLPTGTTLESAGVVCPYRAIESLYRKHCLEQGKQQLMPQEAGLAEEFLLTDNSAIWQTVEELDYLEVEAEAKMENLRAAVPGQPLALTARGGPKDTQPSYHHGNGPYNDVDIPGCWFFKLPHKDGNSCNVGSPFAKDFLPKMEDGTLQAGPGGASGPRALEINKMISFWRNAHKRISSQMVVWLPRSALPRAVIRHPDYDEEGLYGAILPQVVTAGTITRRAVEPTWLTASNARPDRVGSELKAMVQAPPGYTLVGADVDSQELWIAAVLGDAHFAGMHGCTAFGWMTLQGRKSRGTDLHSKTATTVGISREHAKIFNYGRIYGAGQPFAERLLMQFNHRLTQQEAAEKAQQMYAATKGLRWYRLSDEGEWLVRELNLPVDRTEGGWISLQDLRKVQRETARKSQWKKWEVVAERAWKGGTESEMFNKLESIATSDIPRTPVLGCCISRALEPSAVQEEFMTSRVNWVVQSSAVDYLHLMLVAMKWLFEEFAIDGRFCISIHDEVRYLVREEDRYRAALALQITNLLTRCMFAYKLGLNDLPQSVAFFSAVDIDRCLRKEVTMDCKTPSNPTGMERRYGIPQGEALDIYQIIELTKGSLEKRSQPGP

ZIKV NS5 RdRp = ZIKV NS5 RdRp (Zika virus, UniProt A0A024B7W1); assay: ZIKV RdRp-catalyzed nucleotide incorporation; assay type: biochemical; details: synthetic ddhCTP
[6] = PAMPA assay; cited from earlier work

Chain of ZIKV NS5 RdRp (A0A024B7W1 2521-3423): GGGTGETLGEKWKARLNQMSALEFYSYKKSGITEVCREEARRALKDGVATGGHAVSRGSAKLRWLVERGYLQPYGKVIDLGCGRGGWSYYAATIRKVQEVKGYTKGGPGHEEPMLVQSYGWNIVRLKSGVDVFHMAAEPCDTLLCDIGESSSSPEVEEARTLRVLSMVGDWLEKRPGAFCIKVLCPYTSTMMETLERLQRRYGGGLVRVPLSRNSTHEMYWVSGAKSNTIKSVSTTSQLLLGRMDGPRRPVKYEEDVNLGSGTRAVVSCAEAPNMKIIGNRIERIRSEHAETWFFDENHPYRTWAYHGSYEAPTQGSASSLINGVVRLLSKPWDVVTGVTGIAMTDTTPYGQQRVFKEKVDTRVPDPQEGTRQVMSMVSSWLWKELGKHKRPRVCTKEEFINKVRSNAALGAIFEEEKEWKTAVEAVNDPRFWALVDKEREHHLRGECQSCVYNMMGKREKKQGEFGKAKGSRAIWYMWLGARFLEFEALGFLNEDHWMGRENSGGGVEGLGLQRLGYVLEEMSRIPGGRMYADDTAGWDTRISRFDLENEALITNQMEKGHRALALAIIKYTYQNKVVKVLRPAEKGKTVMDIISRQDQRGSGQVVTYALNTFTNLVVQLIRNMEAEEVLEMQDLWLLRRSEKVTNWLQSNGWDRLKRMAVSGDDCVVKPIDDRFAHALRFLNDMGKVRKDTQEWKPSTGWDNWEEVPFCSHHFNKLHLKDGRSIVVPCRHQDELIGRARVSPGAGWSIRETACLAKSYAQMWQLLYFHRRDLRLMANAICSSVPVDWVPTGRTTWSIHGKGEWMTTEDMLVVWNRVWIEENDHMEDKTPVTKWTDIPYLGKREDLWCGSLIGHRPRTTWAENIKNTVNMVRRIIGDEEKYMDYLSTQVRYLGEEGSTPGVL

## CC(C)OC(=O)[C@H](C)NP(=O)(OCC1=C[C@@H](O)[C@H](n2ccc(N)nc2=O)O1)Oc1ccccc1 (stereo in doubt) [compound 1, Isopropyl ((S)-(((4R,5R)-5-(4-amino-2-oxopyrimidin-1(2H)-yl)-4-hydroxy-4,5-dihydrofuran-2-yl)methoxy)(phenoxy)phosphoryl)-L-alaninate]
HUH7 cells [1]
  cytotoxicity (in words): neither ddhC nor 1 were cytotoxic
HUH7 cells [2]
  dosed compound in HUH7 lysate 24 h following dosage (cell permeable): detected
WNV; HUH7 cells
  reduction of WNV levels: > 4 log10 pfu/mL
WNV; HUH7.5 cells
  reduction of WNV levels: > 4 log10 pfu/mL
WNV; Vero cells
  activity against WNV (in words): inactive
ZIKV (strain PRABC59) [3]; HUH7 cells
  reduction in ZIKV virus levels: > 1 log10 pfu/mL
ZIKV (strain PRABC59) [3]; HUH7.5 cells
  reduction in ZIKV virus levels: > 1 log10 pfu/mL
ZIKV (strain PRABC59) [3]; Vero cells, MOI 0.1, 4 days post-infection, compared with HUH7 and HUH7.5
  activity against ZIKV in Vero cells (in words): weaker activity
Vero cells
  cytotoxicity (in words): neither ddhC nor 1 were cytotoxic

## Nc1ccn([C@@H]2OC(CO)=C[C@H]2O)c(=O)n1 [ddhC, 3’-deoxy-3’,4’-didehydro-cytidine]
HUH7 cells [1]
  cytotoxicity (in words): neither ddhC nor 1 were cytotoxic
HEK293 cells
  ddhCTP produced: ~ 100 μM
ZIKV (strain PRABC59) [4]
  reduction of ZIKV levels in infected Vero cells: 50-200 x
HUH7 cells [2]
  dosed compound in HUH7 lysate 24 h following dosage (cell permeable): detected
WNV; HUH7 cells
  activity against WNV (in words): ineffective
WNV; HUH7.5 cells
  activity against WNV (in words): ineffective
WNV; Vero cells
  activity against WNV (in words): ineffective
Vero cells
  cytotoxicity (in words): neither ddhC nor 1 were cytotoxic

## Nc1ccn([C@@H]2OC(COP(=O)(O)OP(=O)(O)OP(=O)(O)O)=C[C@H]2O)c(=O)n1 [ddhCTP, 3’-Deoxy-3’,4’-didehydrocytidine-5’-triphosphate]
[5]
  substrate for DNA polymerase γ (in words): not a substrate
ZIKV NS5 RdRp
  mode of action in primer extension assay (in words): obligate chain terminator

## CC(C)OC(=O)[C@H](C)N[P@](=O)(OC[C@H]1O[C@@H](n2ccc(=O)[nH]c2=O)[C@](C)(F)[C@@H]1O)Oc1ccccc1 [sofosbuvir]
[6]
  Papp: 0.046 ×10⁻⁶ cm/s
